Reference: US5814655A, “Non-steroidal ophthalmic mixtures” (InSite Vision Incorporated, priority 1996, dated 1998)
Each block holds one molecule with its values, some of them ahead of it.

Test: Percent of drug in suspension as a function of concentration in the formulation and pH
Type: physicochemical
[1] = pH 4.0, concentration in the formulation 1.0
[2] = pH 4.0, concentration in the formulation 5.0
[3] = pH 4.0, concentration in the formulation .001
[4] = pH 4.0, concentration in the formulation .01
[5] = pH 4.0, concentration in the formulation .1
[6] = pH 5.0, concentration in the formulation 1.0
[7] = pH 5.0, concentration in the formulation 5.0
[8] = pH 5.0, concentration in the formulation .001
[9] = pH 5.0, concentration in the formulation .01
[10] = pH 5.0, concentration in the formulation .1
[11] = pH 6.0, concentration in the formulation 1.0
[12] = pH 6.0, concentration in the formulation 5.0
[13] = pH 6.0, concentration in the formulation .001
[14] = pH 6.0, concentration in the formulation .01
[15] = pH 6.0, concentration in the formulation .1
[16] = pH 7.0, concentration in the formulation 1.0
[17] = pH 7.0, concentration in the formulation 5.0
[18] = pH 7.0, concentration in the formulation .001
[19] = pH 7.0, concentration in the formulation .01
[20] = pH 7.0, concentration in the formulation .1

Percent Flurbiprofen in Suspension [1]: 99%
Percent Flurbiprofen in Suspension [2]: 99%
Percent Flurbiprofen in Suspension [3]: 20%
Percent Flurbiprofen in Suspension [4]: 92%
Percent Flurbiprofen in Suspension [5]: 99%
Percent Flurbiprofen in Suspension [6]: 99%
Percent Flurbiprofen in Suspension [7]: 99%
Percent Flurbiprofen in Suspension [8]: 0%
Percent Flurbiprofen in Suspension [9]: 33%
Percent Flurbiprofen in Suspension [10]: 93%
Percent Flurbiprofen in Suspension [11]: 80%
Percent Flurbiprofen in Suspension [12]: 98%
Percent Flurbiprofen in Suspension [13]: 0%
Percent Flurbiprofen in Suspension [14]: 0%
Percent Flurbiprofen in Suspension [15]: 0%
Percent Flurbiprofen in Suspension [16]: 24%
Percent Flurbiprofen in Suspension [17]: 92%
Percent Flurbiprofen in Suspension [18]: 0%
Percent Flurbiprofen in Suspension [19]: 0%
Percent Flurbiprofen in Suspension [20]: 0%
Compound: CC(C(=O)O)c1ccc(-c2ccccc2)c(F)c1 (stereo not shown) [Flurbiprofen]

Percent Suprofen in Suspension [1]: 98%
Percent Suprofen in Suspension [2]: 99%
Percent Suprofen in Suspension [3]: 0%
Percent Suprofen in Suspension [4]: 0%
Percent Suprofen in Suspension [5]: 77%
Percent Suprofen in Suspension [6]: 95%
Percent Suprofen in Suspension [7]: 99%
Percent Suprofen in Suspension [8]: 0%
Percent Suprofen in Suspension [9]: 0%
Percent Suprofen in Suspension [10]: 45%
Percent Suprofen in Suspension [11]: 54%
Percent Suprofen in Suspension [12]: 95%
Percent Suprofen in Suspension [13]: 0%
Percent Suprofen in Suspension [14]: 0%
Percent Suprofen in Suspension [15]: 0%
Percent Suprofen in Suspension [16]: 0%
Percent Suprofen in Suspension [17]: 68%
Percent Suprofen in Suspension [18]: 0%
Percent Suprofen in Suspension [19]: 0%
Percent Suprofen in Suspension [20]: 0%
Compound: CC(C(=O)O)c1ccc(C(=O)c2cccs2)cc1 (stereo not shown) [Suprofen]

Compound: O=C(O)Cc1ccccc1Nc1c(Cl)cccc1Cl [Diclofenac Sodium, sodium ortho-(2,6-dichlorophenyl)aminophenylacetate acid]
diclofenac in suspension (in words) (below a pH of about 6.8, formulation containing 1% diclofenac sodium): virtually all
Percent Diclofenac Sodium in Suspension (pH 3.7, concentration in the formulation 1.0): 100%
Percent Diclofenac Sodium in Suspension (pH 3.7, concentration in the formulation .001): 100%
Percent Diclofenac Sodium in Suspension (pH 3.7, concentration in the formulation .01): 100%
Percent Diclofenac Sodium in Suspension (pH 3.7, concentration in the formulation .1): 100%
Percent Diclofenac Sodium in Suspension [1]: 99%
Percent Diclofenac Sodium in Suspension [3]: 99%
Percent Diclofenac Sodium in Suspension [4]: 99%
Percent Diclofenac Sodium in Suspension [5]: 99%
Percent Diclofenac Sodium in Suspension (pH 4.6, concentration in the formulation 1.0): 99%
Percent Diclofenac Sodium in Suspension (pH 4.6, concentration in the formulation .001): 90%
Percent Diclofenac Sodium in Suspension (pH 4.6, concentration in the formulation .01): 99%
Percent Diclofenac Sodium in Suspension (pH 4.6, concentration in the formulation .1): 99%
Percent Diclofenac Sodium in Suspension (pH 5.2, concentration in the formulation 1.0): 99%
Percent Diclofenac Sodium in Suspension (pH 5.2, concentration in the formulation .001): 20%
Percent Diclofenac Sodium in Suspension (pH 5.2, concentration in the formulation .01): 92%
Percent Diclofenac Sodium in Suspension (pH 5.2, concentration in the formulation .1): 99%
Percent Diclofenac Sodium in Suspension (pH 5.9, concentration in the formulation 1.0): 99%
Percent Diclofenac Sodium in Suspension (pH 5.9, concentration in the formulation .001): 0%
Percent Diclofenac Sodium in Suspension (pH 5.9, concentration in the formulation .01): 50%
Percent Diclofenac Sodium in Suspension (pH 5.9, concentration in the formulation .1): 95%
Percent Diclofenac Sodium in Suspension (pH 6.3, concentration in the formulation 1.0): 98%
Percent Diclofenac Sodium in Suspension (pH 6.3, concentration in the formulation .001): 0%
Percent Diclofenac Sodium in Suspension (pH 6.3, concentration in the formulation .01): 0%
Percent Diclofenac Sodium in Suspension (pH 6.3, concentration in the formulation .1): 76%
Percent Diclofenac Sodium in Suspension (pH 6.5, concentration in the formulation 1.0): 93%
Percent Diclofenac Sodium in Suspension (pH 6.5, concentration in the formulation .001): 0%
Percent Diclofenac Sodium in Suspension (pH 6.5, concentration in the formulation .01): 0%
Percent Diclofenac Sodium in Suspension (pH 6.5, concentration in the formulation .1): 35%
Percent Diclofenac Sodium in Suspension (pH 7.3, concentration in the formulation 1.0): 64%
Percent Diclofenac Sodium in Suspension (pH 7.3, concentration in the formulation .001): 0%
Percent Diclofenac Sodium in Suspension (pH 7.3, concentration in the formulation .01): 0%
Percent Diclofenac Sodium in Suspension (pH 7.3, concentration in the formulation .1): 0%
